{"source": "a melting point compilation (Tetko et al.; mined from patent text by program, amines drawn as free bases though some values may be those of a salt)"}
{"units": {"melting point": "°C"}}
{"smiles": "CCN1CCCC(NC2c3ccccc3Oc3ccccc32)C1", "note": "(stereo not drawn)", "melting point": "47.5 to 48.5"}
{"smiles": "Oc1ccc(-c2nc(-c3ccccc3)nc(-c3ccc(O)cc3O)n2)c(O)c1", "melting point": "250 to 252"}
{"smiles": "COC(=O)C1(Cc2ccc(Br)cc2)CCCN1C(=O)Nc1cc(Cl)cc(Cl)c1", "note": "(stereo not drawn)", "melting point": 171}
{"smiles": "Cc1sc(-c2cc([N+](=O)[O-])cc([N+](=O)[O-])c2)nc1O", "melting point": "247 to 248"}
{"smiles": "COc1ccc(-c2[nH]nc3c2C(=O)c2c(NC(=O)CN4CCSCC4)cccc2-3)cc1", "melting point": 298}
{"smiles": "CCN1c2ncc(CNc3cccc(N)c3)cc2C(=O)N(C)c2ccc(Cl)nc21", "melting point": "188 to 190"}
{"smiles": "COC(=O)Nc1ccc(NC(=O)CN(C)C)c([N+](=O)[O-])c1", "melting point": "186 to 189"}
{"smiles": "COC(=O)c1nc(-c2ccc(Cl)c(F)c2)c(F)c(N)c1SC", "melting point": "125 to 126"}
{"smiles": "Nc1nc(-c2ccnc(-c3ccc(N4CCOCC4)cc3)c2)c(-c2ccccn2)s1", "melting point": 276}
{"smiles": "CSc1ccc(-c2ccccc2)c([N+](=O)[O-])c1", "melting point": "51 to 52"}
{"smiles": "O=C1C(=O)c2ccccc2C2=C1SCC1(CCN(C(=O)c3ccc(Cl)c(Cl)c3)CC1)O2", "melting point": 221}
{"smiles": "Fc1ccc(C(OCCCN2CCN(C(c3ccccc3)c3ccccc3)CC2)c2ccc(F)cc2)cc1", "melting point": "78 to 79"}
{"smiles": "Cc1noc(NS(=O)(=O)c2ccccc2-c2ccc(-c3ncco3)cc2CN(C)C(=O)c2ccccc2Cl)c1C", "melting point": "125 to 135"}
{"smiles": "O=c1nc(-c2ccccc2)c2cc(Cl)ccc2n1CC(F)(F)F", "melting point": "184 to 185"}
{"smiles": "CCCCCCCCC(C)OC(=O)NC(C)(C=O)CCc1c[nH]c2ccccc12", "note": "(stereo not drawn)", "melting point": "178 to 179"}
{"smiles": "CC(O)c1nn(Cc2ccccc2)c(=O)o1", "note": "(stereo not drawn)", "melting point": 70}
{"smiles": "O=S(=O)(Br)c1ccc(Cl)s1", "melting point": "35 to 37"}
{"smiles": "Cc1ccc(-c2noc3c(Cl)c(OCC(=O)O)ccc23)s1", "melting point": "235 to 238"}
{"smiles": "COC(=O)CC[C@H](NC(=O)c1ccc(C#Cc2cnc3nc(NC(=O)C(C)(C)C)nc(O)c3c2)s1)C(=O)OC", "melting point": "228 to 230"}
{"smiles": "N#Cc1c(NCCCn2ccnc2)cccc1Oc1ccc(-c2cn(C3CCOC3)c3ncnc(N)c23)cc1", "note": "(stereo not drawn)", "melting point": 110}
{"smiles": "CCCNC(=O)C(O)C1c2ccccc2C(=O)N1c1ccc2ccc(C)nc2n1", "note": "(stereo not drawn)", "melting point": "128 to 130"}
{"smiles": "CCCCc1nc2c(N)nc3ccccc3c2n1CCOCCN1CCCS1(=O)=O", "melting point": "152 to 154"}
{"smiles": "C(=C\\c1ccc2oc3ccc(/C=C/c4ccccc4)cc3c2c1)/c1ccccc1", "melting point": 226}
{"smiles": "O=C(c1ccccc1)c1ccc(N2CCCCC2)c([N+](=O)[O-])c1", "melting point": 77}
{"smiles": "COc1c(O)ccc(C=O)c1[N+](=O)[O-]", "melting point": "136 to 137"}
{"smiles": "CCS(=O)(=O)C1=C(C(=O)c2ccc(S(C)(=O)=O)cc2Cl)C(=O)CCC1", "melting point": "157 to 161"}
{"smiles": "CCOC(=O)CNC(=O)CCCCCNC(=O)c1ccc(S(C)(=O)=O)cc1", "melting point": "124 to 126"}
{"smiles": "Nc1ccc(SCc2cnc3ccccn23)cc1", "melting point": "119 to 121"}
{"smiles": "COc1cc(C(O)c2c(O)c(=O)ccn2CCO)ccc1O", "note": "(stereo not drawn)", "melting point": "179 to 190"}
{"smiles": "Cn1c(=O)c(-c2ccc(Cl)cc2Cl)cc2c3cc(-c4nc(CN5CCCC5)cs4)ccc3n(C)c21", "melting point": "222 to 226"}
{"smiles": "CON1C(C)(C)CC(OC(=O)C2=C(c3ccccc3)C(c3ccccc3)OC2=O)CC1(C)C", "note": "(stereo not drawn)", "melting point": "143 to 146"}
{"smiles": "O=C(O)CCCOc1ccc(C23CC4CC(CC(C4)C2)C3)cc1Cl", "melting point": "164 to 166"}
{"smiles": "COc1cc2c(cc1Nc1ncc(Cl)c(Nc3ccccc3S(=O)(=O)N(C)C)n1)CCN(C(=O)CN1CCOCC1)CC2", "melting point": "84 to 95"}
{"smiles": "O=C(NC1CCCCC1)c1ccc(CO)cc1", "melting point": 185}
{"smiles": "COC(=O)CCc1cc2cc(Cl)ccc2n1S(=O)(=O)c1ccc(C(C)(C)C)cc1", "melting point": "130 to 133"}
{"smiles": "COc1ccc(C(=O)Nc2ccc3ccc(Oc4ccc(F)cc4)nc3n2)cc1", "melting point": 100}
{"smiles": "CC(C)CNc1nccc(Oc2ccc(NC(=O)c3cc(F)cc(N4CCOCC4)c3)c3ccccc23)n1", "melting point": "96 to 97"}
{"smiles": "O=C1NC(=O)[C@@]2(C[C@@H](C(=O)NCCN3CCN(C(c4ccccc4)c4ccccc4)CC3)Oc3ccc(F)cc32)N1", "melting point": "200 to 205"}
{"smiles": "Cc1ccc(C(=O)Nc2nc(-c3ccccc3)c(-c3nc4ccccc4c(=O)n3-c3ccccc3)s2)cc1", "melting point": "> 275"}
{"smiles": "Cc1ccc(-c2cnccn2)cc1", "melting point": "54 to 55"}
{"smiles": "CCOC(=O)/C=C/c1cn(Cc2ccc(Oc3ccccc3)cc2)nc1OCc1nc(-c2ccccc2)oc1C", "melting point": "93 to 94"}
{"smiles": "CCCOCCOc1ccc(OCC(O)CNCCNC(N)=O)cc1", "note": "(stereo not drawn)", "melting point": 115}
{"smiles": "COCc1ccc(CCCOc2c(C)cc(-c3noc(C(F)(F)F)n3)cc2C)cn1", "melting point": "50 to 53"}
{"smiles": "CNC(=O)N1N=C(c2ccc(N)c(C)c2)c2cc(Cl)ccc2C=C1C", "melting point": "210 to 212"}
{"smiles": "O=C(O)C(c1ccccc1)N1C(=O)c2ccccc2C1=O", "note": "(stereo not drawn)", "melting point": "175 to 177"}
{"smiles": "Nc1cccc(Oc2cccc(Oc3cccc(N)c3)c2)c1", "melting point": "105 to 107"}
{"smiles": "CCN1C(=O)c2cccc3c(S(C)(=O)=O)ccc1c23", "melting point": "199 to 203"}
{"smiles": "N=C(OCc1ccc(Cl)cc1)N1Cc2ccccc2-c2ccccc2C1", "melting point": "103 to 105"}
{"smiles": "Cc1nn(C2=C(F)CC(F)(C#N)C=C2)c(=O)[nH]c1=O", "note": "(stereo not drawn)", "melting point": 214}
{"smiles": "CC(C)(NC=O)c1cc(Cl)cc(Cl)c1", "melting point": "115 to 117"}
{"smiles": "Oc1ccc(F)nc1I", "melting point": "96 to 98"}
{"smiles": "Cc1cc(=O)c2[nH]c3ccccc3c2s1", "melting point": "295 to 296"}
{"smiles": "CC(CO)(CO)C(=O)OCc1ccccc1", "melting point": "71.6 to 72.8"}
{"smiles": "Cn1c(=O)c2cnc(N)nc2n(-c2ccccc2)c1=O", "melting point": "> 300"}
{"smiles": "CC(C)Oc1n[nH]c2nc(Oc3ccc(F)cc3F)ncc12", "melting point": "144 to 145"}
{"smiles": "O=C(O)Cc1ccc(NC(=O)C(CCc2ccccc2)NS(=O)(=O)c2ccc(Cl)cc2)cc1", "note": "(racemic)", "melting point": "163 to 167"}
{"smiles": "COc1ccc2cc(C#CC(C)N(O)C(N)=O)ccc2c1", "note": "(stereo not drawn)", "melting point": "181 to 183"}
{"smiles": "O=C1Cc2c(OCCN3CCc4ccccc4C3)ccc(F)c2N1", "melting point": "230 to 235"}
{"smiles": "Cn1cc(-c2cccc(N3Cc4cc(C(C)(C)C)ccc4C3=O)c2CO)cc(Nc2ccccn2)c1=O", "melting point": "138 to 139"}
{"smiles": "NS(=O)(=O)c1cc2c3c(ccc2cc1[N+](=O)[O-])N(C(=O)C(F)(F)F)CC3CCl", "note": "(stereo not drawn)", "melting point": "192 to 195"}
{"smiles": "COc1ccc(NC(=O)N=C2CCCN2C)cc1OC", "melting point": "118 to 120"}
{"smiles": "O=C1C2CCCCC2C(=O)N1c1ccc(Cl)cc1F", "note": "(stereo not drawn)", "melting point": "94 to 95.5"}
{"smiles": "CNc1nc(Cl)nc2c1ncn2C1CC(F)C(CO)O1", "note": "(stereo not drawn)", "melting point": "181 to 182"}
{"smiles": "O=C(O)c1ccc2cccc(Br)c2c1", "melting point": "265 to 266"}
{"smiles": "COc1ccc(-c2n[nH]c3c2Cc2ccccc2-3)cc1", "melting point": 247}
{"smiles": "C=CCc1c(Cl)cc2c(c1O)OC(COS(=O)(=O)c1ccc(C)cc1)C2", "note": "(stereo not drawn)", "melting point": "128 to 131"}
{"smiles": "COC(=O)c1cc(C)c(OCCNC(=O)C2Cc3ccccc3N2S(=O)(=O)c2ccc(-c3cccc(C(F)(F)F)c3)cc2)c(C)c1", "note": "(stereo not drawn)", "melting point": "81 to 83"}
{"smiles": "COC1C(OC(=O)c2ccc(N)cc2)C=C(C)C(=O)CC1(C)C", "note": "(stereo not drawn)", "melting point": "159 to 161"}
{"smiles": "CCC(=O)C(C=O)=Cc1cc(O)c(O)c(C#N)c1", "melting point": "228 to 232"}
{"smiles": "CC(C)(C)c1ccc(CCOc2ncnc3nccnc23)cc1", "melting point": 149}
{"smiles": "CN(C)C1CCc2oc3ccc(NC(=O)c4ccc(F)cc4)cc3c2C1", "note": "(stereo not drawn)", "melting point": "137 to 138"}
{"smiles": "CCCCN1CCC(NC(=O)c2cnc3c(OC)cccc3c2Nc2ccc(C(=O)NC3CCN(Cc4ccccc4)CC3)cc2)CC1", "melting point": "215 to 220"}
{"smiles": "CCCC[C@@H](C)C(C(=O)O)C(=O)O", "melting point": 123}
{"smiles": "CC(=O)NC1CCC(=O)c2sccc21", "note": "(stereo not drawn)", "melting point": "160 to 164"}
{"smiles": "O=C1C(=O)c2ccccc2C2=C1SCC1(CCN(Cc3ccc(-c4cn[nH]c4)cc3)CC1)O2", "melting point": "190 to 192"}
{"smiles": "CC(C)(C)c1cc(-c2c[nH]c(=O)[nH]2)cc(C(C)(C)C)c1O", "melting point": "> 260"}
{"smiles": "CN1CCCC1=NC(=O)Nc1ccc(Br)cc1", "melting point": "134 to 136"}
{"smiles": "Clc1ccc2nc(N3CCCCC3)nc(N3CCCCC3)c2c1", "melting point": "115 to 118"}
{"smiles": "CCN(CC)CCNC(=O)C1N=C(c2ccccc2)c2cc(Cl)ccc2NC1=O", "note": "(stereo not drawn)", "melting point": 220}
{"smiles": "COCOc1ccccc1-c1cc(-c2cccc(C(=O)OC)c2)c(C#N)c(N)n1", "melting point": "129 to 130"}
{"smiles": "CCCCOc1c(N(C)C(=O)OC(C)(C)C)n(CC(C)(C)C)c(=O)c2ccc(CC(N)=O)cc12", "melting point": "114 to 115"}
{"smiles": "CCOC(=O)NNC(=O)Cc1noc(C)n1", "melting point": "122 to 124"}
{"smiles": "CN1Cc2c(F)ncn2-c2ccccc2C1=O", "melting point": "171 to 172"}
{"smiles": "CNc1cc2c(c(C)c1F)c(=O)c(C(=O)O)cn2-c1cc(N)c(F)cc1F", "melting point": "> 270"}
{"smiles": "COc1cccc(C(F)(F)F)c1C(N)=O", "melting point": "178 to 181"}
{"smiles": "CCOC(=O)C(C)OCc1cc2nc(C(F)(F)F)ccc2n1S(=O)(=O)c1ccc2ncsc2c1", "note": "(stereo not drawn)", "melting point": 96}
{"smiles": "CNc1ncnc2c1c(-c1ccc([N+](=O)[O-])o1)nn2C", "melting point": 280}
{"smiles": "CCC(O)=C1SC(=S)N(c2ccccc2)C1=O", "melting point": "105 to 111"}
{"smiles": "CCOCCOc1ccc(CCNC(=O)/C=C/c2cccs2)cc1S(N)(=O)=O", "melting point": 52}
{"smiles": "CS(=O)(=O)Nc1ccc(C(=O)O)c(Cl)c1", "melting point": "256 to 258"}
{"smiles": "Cc1c(C(=O)O)oc2cc(O)c(Cl)cc12", "melting point": "279 to 280"}
{"smiles": "Cc1cc(Cn2cnc3c2CC(C(=O)O)N(C(=O)C(c2ccccc2)c2ccccc2)C3)ccc1N(C)C", "note": "(stereo not drawn)", "melting point": "72 to 75"}
{"smiles": "O=C(O)c1cn([C@@H]2C[C@@H]2F)c2c(Cl)c(N3CC4=C(CNC4)C3)c(F)cc2c1=O", "melting point": "221 to 223"}
{"smiles": "O=C(N[C@H](Cc1ccc(C(F)(F)F)cc1)[C@@H](O)c1ccc(F)cc1)c1ccc2c(c1)OCO2", "note": "(racemic)", "melting point": "180 to 181"}
{"smiles": "O=C(O)c1ccc(-c2ccc3oc([N+](=O)[O-])c(-c4ccccc4)c3c2)cc1", "melting point": "259 to 261"}
{"smiles": "CC12CC(O)C3=C4CCC(=O)C=C4CCC3C1C(O)CC2=O", "note": "(stereo not drawn)", "melting point": 146}
{"smiles": "CCOc1cn(C)cc(-c2ccc(Cl)c(C(F)(F)F)c2)c1=O", "melting point": "158 to 159"}
{"smiles": "COC(=O)[C@H]1C[C@H](NS(C)(=O)=O)c2c(Cl)cc(Cl)cc2N1", "note": "(relative stereo)", "melting point": "143 to 146"}
